“Also recorded” adds a separate entry of the source.
Columns and labels:
tubulin [1] = test: In vitro microtubule polymerization assay (fluorescence); assay type: biochemical; set-up: dose or concentration left out as unconfirmed; conditions: 37 °C, 1.5 h, λex 350 nm, 430 nm
Description: To gather further insight into the molecular mechanism of action of PPPs, an in vitro cytoskeleton assay was carried out to investigate the effect of these agents on microtubule polymerization (Figure 1). In this protocol, 85 μL of 10 mg/mL tubulin stock was incubated with tubulin glycerol buffer for 1.5 h at 37 °C in the presence of various PPPs at a fixed concentration (20 mM). Following this, the degree of tubulin polymerization was evaluated by observing their fluorescence profile with time.
The content of polymerized microtubules was monitored by measuring fluorescence intensity at 430 nm (λex = 350 nm) every 7 s for 1.5 h. Paclitaxel (PTXL), a well-known microtubule stabilizer, was added to the assay as a positive control, whereas the tubulin glycerol buffer acted as a negative control. […] This implies that addition of PPP1–7 into the assay led to a stabilization of microtubule polymerization. […] Further inspection to correlate between the obtained trend in tubulin polymerization and modifications attempted at the N-1 and C-3 positions yielded interesting observations. […]
Unless otherwise mentioned, the reagents and chemicals were purchased from Sigma-Aldrich (St. Louis, MO) and used without any purification. […] High-resolution mass spectra (HRMS) were recorded on a quad time-of-flight electrospray ionization (ESI)-MS instrument.

MCF-7 cells [2] = test: MTT assay in MCF-7 cells; assay type: cell-based; conditions: for viability at 10 µM: read-out: viable cells; for IC50: MCF-7, MTT
Source text: (§1) An in vitro cancer cell two-dimensional culture model was used for this study using 3-(4,5-dimethylthiazole-2-yl)-2,5-diphenyltetrazolium bromide (MTT) assay.[19]
(§2) The cell viability of PPPs was investigated using 3-(4,5-dimethylthiazole-2-yl)-2,5-diphenyltetrazolium bromide (MTT) reduction assay in the presence of 10% fetal bovine serum in antibiotic free media. The yellow tetrazolium salt (MTT) is modified by mitochondrial dehydrogenases to its purple formazan derivative (MTT-formazan) with maximum absorbance at 560–570 nm. […] Experiment was performed in 96-well plates (Cellstar, Germany) growing 10 000 cells (MCF-7, MDA-MB231, and MCF-10A) per well for 24 h before treatments. Experiments were performed for various concentrations of PPPs ranging from 10^5 to 10^0 nM and compared with Taxol as positive control ranging from 10^2 to 10^–3 nM, as described in particular experiment. Cells were incubated for 48 h before performing the MTT assay. At the end of the incubation period, cells were treated with MTT (20 μL, 5 mg/mL) per well and further incubated for 4 h. At the end of the incubation, the entire medium was removed from the wells and 200 μL of dimethyl sulfoxide (DMSO) was added to dissolve blue-colored formazan crystals produced by mitochondrial respirations. The percentage cell viability was obtained by calculating absorbance values and calculated using the formula %viability = {[A630(treated cells) – (background)]/[A630(untreated cells) – background]} × 100.

MDA-MB231 cells = test: MTT assay in MDA-MB231 cells; assay type: cell-based
Source text: as §1, §2

human melanoma C32 cells = test: MTT assay in C32 cells; assay type: cell-based; conditions: 48 h
Source text: as §1, §2

MCF-10A cells = test: MTT assay in noncancerous MCF-10A cells; assay type: cell-based, human; conditions: 10 μM, 48 h
Description: Effectivity of anticancer drugs not only depends on cancer inhibition property but minimum effect to noncancerous normal cells. A representative study was performed on MCF-10A cells of noncancerous nature and human breast origin. […] It indicates the selectivity of PPPs toward cancer cells, presumably due to higher variation in tubulin polymerization processes.
as §2

MCF-7 cells [3] = test: Cell growth density study (bright field images); assay type: cell-based; conditions: MCF-7, 1 μM
tubulin [4] = test: SDS-PAGE of PPP-tubulin mixtures, band intensity of polymerized tubulin (FIJI); assay type: biochemical; conditions: Coomassie stain, among all PPP–tubulin mixtures
Description: With this promising result, we further focused on confirming the polymerization of microtubules. PPP–tubulin mixtures were collected from the abovementioned assay, and a sodium dodecyl sulfate polyacrylamide gel electrophoresis (SDS-PAGE) was performed to separate both tubulin as well as polymerized tubulin from the mixture. […] Two distinct bands were obtained, one in the region of 40–55 kDa, which is consistent with the molecular weight of α-, β-tubulin,[16] and other in the region of 130 kDa. This is presumably a result of tubulin polymerization. A semiquantitative analysis of the polymerized tubulin bands was performed using FIJI[17] to calculate the band intensities, as shown in Figure 2b. Fold change of band intensities was further calculated with respect to PPP5–tubulin mixture (Figure 2c).  Figure 2 (a) Coomassie-stained gel lanes for tubulin–dye mixtures, showing two migrating populations, polymerized tubulin (∼130 kDa MW), and α-, β-tubulin (∼50 kDa MW). A representative molecular weight standard lane is also shown across the sample lanes for comparison.

[5] = Homo sapiens, MCF7, MCF-7, 10 μM, 48 h

| Compound | viability at 10 µM (MCF-7 cells [2]; [5]) | IC50 (MCF-7 cells [2]; Homo sapiens, MCF7, 48 h) | IC50 (MDA-MB231 cells; Homo sapiens, MDA-MB-231, 48 h) | IC50 (human melanoma C32 cells; Homo sapiens) | cell death in noncancerous cells (MCF-10A cells) | also measured |
| --- | --- | --- | --- | --- | --- | --- |
| CC(=O)O[C@H]1C(=O)[C@@]2(C)[C@H]([C@H](OC(=O)c3ccccc3)[C@]3(O)C[C@H](OC(=O)[C@H](O)[C@@H](NC(=O)c4ccccc4)c4ccccc4)C(C)=C1C3(C)C)[C@]1(OC(C)=O)CO[C@@H]1C[C@@H]2O [Taxol, Paclitaxel, reference compound] | – | – | – | – | – | effect on microtubule polymerization (fluorescence intensity with time) (tubulin [1]; listed as PTXL): increase in relative fluorescence intensity; also recorded: stabilizing the tubulin polymerization reaction; cell growth level (MCF-7 cells [2]; MCF-7, positive control, Figure 4b): 42 ± 10% |
| Cc1cc(-c2ccc3ccc4cccc5ccc2c3c45)[nH]n1 [PPP6, 3-Methyl-5-(pyren-1-yl)-1H-pyrazole] | 55 ± 5% | 43 ± 5 µM | > 100 µM | > 100 µM | – | – |
| c1ccc(-c2cc(-c3ccc4ccc5cccc6ccc3c4c56)n(-c3ccccc3)n2)cc1 [PPP4, 1,3-Diphenyl-5-(pyren-1-yl)-1H-pyrazole] | 30 ± 3% | 1 ± 0.5 µM | 0.5 ± 0.2 µM | 5 ± 2 µM | did not result in any significant cell death | loss in cell growth density (MCF-7 cells [3]): maximum loss |
| O=C(O)c1cc(-c2ccc3ccc4cccc5ccc2c3c45)n(-c2ccccc2)n1 [PPP7, 1-Phenyl-5-(pyren-1-yl)-1H-pyrazole-3-carboxylic Acid] | 50 ± 5% | 8 ± 2 µM | 10 ± 2 µM | 14 ± 2 µM | did not result in any significant cell death | – |
| Cc1cc(-c2ccc3ccc4cccc5ccc2c3c45)n(-c2ccc(-c3ccccc3)cc2)n1 [PPP2, 1-([1,1′-Biphenyl]-4-yl)-3-methyl-5-(pyren-1-yl)-1H-pyrazole] | 45 ± 3% | 34 ± 4 µM | 15 ± 5 µM | > 100 µM | – | – |
| c1ccc(-c2ccc(-n3nc(-c4ccccc4)cc3-c3ccc4ccc5cccc6ccc3c4c56)cc2)cc1 [PPP5, 1-([1,1′-Biphenyl]-4-yl)-3-phenyl-5-(pyren-1-yl)-1H-pyrazole] | 70 ± 10% | > 100 µM | > 100 µM | > 100 µM | – | effect on microtubule polymerization (fluorescence intensity with time) (tubulin [1]): inhibits microtubule formation; also recorded: inhibition of microtubule polymerization; band intensity of polymerized tubulin (∼130 kDa) (tubulin [4]): least |
| Cc1cc(-c2ccc3ccc4cccc5ccc2c3c45)n(-c2ccccc2)n1 [PPP1, 3-Methyl-1-phenyl-5-(pyren-1-yl)-1H-pyrazole] | 50 ± 5% | 60 ± 10 µM | > 100 µM | > 100 µM | did not result in any significant cell death | – |
| 1-(Benzo[b]thiophen-2-yl)-3-methyl-5-(pyren-1-yl)-1H-pyrazole [PPP3] | – | – | – | – | – | viable cells (MCF-7 cells [2]; MCF-7, 10 μM, 48 h): 52 ± 5%; IC50 (MCF-7 cells [2]; 48 h): > 100 µM; IC50 (MDA-MB231 cells; 48 h): > 100 µM; IC50 (human melanoma C32 cells): > 100 µM |

— PMC6130796, “Copper-Catalyzed Syntheses of Pyrene-Pyrazole Pharmacophores and Structure Activity Studies for Tubulin Polymerization” (ACS Omega, 2018)
